Data from patent US12448655B2, “Antibiotic susceptibility of microorganisms and related methods and systems” (CALIFORNIA INSTITUTE OF TECHNOLOGY, priority 2017, dated 2025).

Tests used:
Neisseria gonorrhoeae [1] = experiment: Minimum inhibitory concentrations (MICs) of Neisseria gonorrhoeae clinical isolates; type: cell-based
Procedure: Isolates and agar-dilution MIC testing. Isolates were provided by the University of Washington Neisseria Reference Laboratory and the Centers for Disease Control (CDC) Antibiotic Resistance Isolate Bank Neisseria gonorrhoeae panel (SINuca-Table). MICs of the CDC AR Isolate Bank are reported by the CDC [10], and MIC of all other isolates were determined by agar dilution according to the Clinical and Laboratory Standards Institute (CLSI) guidelines.

Neisseria gonorrhoeae [2] = experiment: AST by inaccessible DNA, 2 incubation steps (media; TRIS pH 8.5 enhancing buffer), qPCR (Example 3); type: cell-based; conditions: 30 min ABX exposure then 20 min TRIS pH 8.5 ± 1% Triton X-100
Procedure: Antibiotic susceptibility test was performed with methods herein described comprising 2 sequential incubation steps, and in particular • a primary incubation in which a sample is contacted with media, antibiotic (or water in untreated sample), and a nuclease (such as DNaseI), and optionally an enhancer (such as 1% Triton X-100); and • a secondary incubation in which a cell suspension from primary incubation is contacted with enhancers such as 50 mM TRIS buffer at pH 8.5 and/or 1% Triton X-100, possibly using dilution of the cell suspension from the antibiotic exposure by 90-95% (such as 50 μL into 450 μL, 25 μL into 475 μL) removing most antibiotic, culture media, and other components from the primary incubation for the enhancer condition.
The samples were mixed before transferring 25 μL or 50 μL of the sample to the prepared secondary incubation (enhancer) tubes. The charts in step 1 were followed to add the appropriate volume of cells to each tube. Mix the tubes and proceed to step 9 immediately
Extraction was performed following the “DEB Extraction” description in the general methods using Eppendorf tubes. […]
Detection of DNA was performed following the “qPCR” description in the general methods. Quantify all DEB-extracted DNA using the Primer mix=(10 μM forward and reverse) targeting N. gonorrhoeae porA gene. […]

Ng isolates = experiment: nuc-aAST time-course without enhancing step (Example 32); type: cell-based, Neisseria gonorrhoeae; conditions: two PEN-S and two PEN-R Ng isolates; DNase I present; no enhancing step
Procedure: nuc-aAST time-course without enhancing step. Working cultures of Ng isolates were prepared as described in “Ng culture preparation.” Incubation at 37° C. was performed in 100 μL reaction volumes in PCR tube strips on a BioRad C1000 Thermal Cycler. Treated samples consisted of 77.5 μL MHB, 2.5 μL NaHCO3 (200 mM), 5 μL DNase I (2 U/μL), 5 μL PEN (20 μg/mL), and 10 μL working Ng isolate culture. PEN was replaced with NF—H2O in control samples. A 10 μL aliquot of each sample was extracted at 15, 30, 45, 60, 90, and 120 min and diluted 10× in QuickExtract DNA Extraction Solution (Lucigen, Middleton, WI, USA), then heated for 6 min at 65° C. followed by 4 min at 98° C. on a BioRad C1000 Thermal Cycler. All sample handling following antibiotic exposure was performed using a multichannel pipette; qPCR and calculation of % accessibility were performed as described above.
β-lactams should primarily affect peptidoglycan, and should not have a major impact on the outer membrane, which serves as a structural element in Gram-negative bacteria. Therefore, it is expected the primary mechanism behind any increase in accessibility to be cell lysis as a result of exposure to β-lactams, leading to release of genomic DNA to the extracellular environment containing DNase. […]

CO/N=C(\C(=O)N[C@@H]1C(=O)N2C(C(=O)O)=C(CSc3nc(=O)c(=O)[nH]n3C)CS[C@H]12)c1csc(N)n1 [CRO, ceftriaxone]
Antibiotic MICs (Neisseria gonorrhoeae [1]; isolate ng_1): ≤0.008 µg/mL
Antibiotic MICs (Neisseria gonorrhoeae [1]; isolate ng_2): <0.008 µg/mL
Antibiotic MICs (Neisseria gonorrhoeae [1]; isolate ng_3): ≤0.008 µg/mL
Antibiotic MICs (Neisseria gonorrhoeae [1]; isolate ng_4): 0.030 µg/mL
Antibiotic MICs (Neisseria gonorrhoeae [1]; isolate ng_5): 0.015 µg/mL
Antibiotic MICs (Neisseria gonorrhoeae [1]; isolate ng_6): ≤0.008 µg/mL
Antibiotic MICs (Neisseria gonorrhoeae [1]; isolate ng_12): 0.015 µg/mL
Antibiotic MICs (Neisseria gonorrhoeae [1]; isolate ng_15): ≤0.008 µg/mL
Antibiotic MICs (Neisseria gonorrhoeae [1]; isolate ng_15, listed as ceftriaxone): < 0.008 µg/mL
Antibiotic MICs (Neisseria gonorrhoeae [1]; isolate ng_16): ≤0.008 µg/mL
Antibiotic MICs (Neisseria gonorrhoeae [1]; isolate ng_17): ≤0.008 µg/mL
Antibiotic MICs (Neisseria gonorrhoeae [1]; isolate ng_17, listed as ceftriaxone): ≤ 0.008 µg/mL
Antibiotic MICs (Neisseria gonorrhoeae [1]; isolate ng_18): 0.030 µg/mL
Antibiotic MICs (Neisseria gonorrhoeae [1]; isolate ng_19): 0.015 µg/mL
Antibiotic MICs (Neisseria gonorrhoeae [1]; isolate ng_20): ≤0.008 µg/mL
Antibiotic MICs (Neisseria gonorrhoeae [1]; isolate ng_30): 0.500 µg/mL
Antibiotic MICs (Neisseria gonorrhoeae [1]; isolate ng_30, listed as ceftriaxone): 0.05 µg/mL
Antibiotic MICs (Neisseria gonorrhoeae [1]; isolate ng_41): 0.125 µg/mL
Antibiotic MICs (Neisseria gonorrhoeae [1]; isolate ng_44): ≤0.008 µg/mL

penicillin
fold change (1/FC) of DNA between 30 and 50 minute measurements (Neisseria gonorrhoeae [2]; resistant isolate (ng_44)): approximately 1.5
fold change (1/FC) of DNA between 30 and 50 minute measurements (Neisseria gonorrhoeae [2]; susceptible-treated samples (ng_17)): > 5
exposure time at which percentage accessibility differed significantly between susceptible and resistant isolates (Ng isolates): 90 min
Antibiotic MICs (Neisseria gonorrhoeae [1]; isolate ng_1): 0.250 µg/mL
Antibiotic MICs (Neisseria gonorrhoeae [1]; isolate ng_2): 0.250 µg/mL
Antibiotic MICs (Neisseria gonorrhoeae [1]; isolate ng_3): 0.250 µg/mL
Antibiotic MICs (Neisseria gonorrhoeae [1]; isolate ng_4): 0.500 µg/mL
Antibiotic MICs (Neisseria gonorrhoeae [1]; isolate ng_5): 1.000 µg/mL
Antibiotic MICs (Neisseria gonorrhoeae [1]; isolate ng_6): 0.250 µg/mL
Antibiotic MICs (Neisseria gonorrhoeae [1]; isolate ng_12): 0.500 µg/mL
Antibiotic MICs (Neisseria gonorrhoeae [1]; isolate ng_15): 0.015 µg/mL
Antibiotic MICs (Neisseria gonorrhoeae [1]; isolate ng_16): 0.015 µg/mL
Antibiotic MICs (Neisseria gonorrhoeae [1]; isolate ng_17): 0.060 µg/mL
Antibiotic MICs (Neisseria gonorrhoeae [1]; isolate ng_18): 2.000 µg/mL
Antibiotic MICs (Neisseria gonorrhoeae [1]; isolate ng_19): 2.000 µg/mL
Antibiotic MICs (Neisseria gonorrhoeae [1]; isolate ng_20): 0.060 µg/mL
Antibiotic MICs (Neisseria gonorrhoeae [1]; isolate ng_30): 1.000 µg/mL
Antibiotic MICs (Neisseria gonorrhoeae [1]; isolate ng_41): 2.000 µg/mL
Antibiotic MICs (Neisseria gonorrhoeae [1]; isolate ng_44): 8.000 µg/mL
